The values that follow come from patent US9265253B2, “Use of macrocyclic picolinamides as fungicides” (DOW AGROSCIENCES LLC, priority 2013, dated 2016).

Each structure is given as a SMILES string.

Common to all, as to type: in vivo
The test system of experiment [1] is Glomerella lagenarium; Anamorph: Colletotrichum lagenarium. Description: Cucumber Anthracnose (COLLLA) disease control. Conditions: Colletotrichum orbiculare, topical, 24 h, 1 Day Protectant, read-out: Disease Control COLLLA 1 DP. As to the method:
Technical grades of materials were dissolved in acetone, which were then mixed with nine volumes of water containing 110 ppm Triton X-100. The fungicide solutions were applied onto wheat seedlings using an automated booth sprayer to run-off. All sprayed plants were allowed to air dry prior to further handling. All fungicides were evaluated using the aforementioned method for their activity vs. all target diseases. Wheat leaf blotch and brown rust activity were also evaluated using track spray applications, in which case the fungicides were formulated as EC formulations, containing 0.1% Trycol 5941 in the spray solutions. Wheat plants (variety Yuma) were grown from seed in a greenhouse in 50% mineral soil/50% soil-less Metro mix until the first leaf was fully emerged, with 7-10 seedlings per pot. These plants were inoculated with an aqueous spore suspension of Septoria tritici either prior to or after fungicide treatments. After inoculation the plants were kept in 100% relative humidity (one day in a dark dew chamber followed by two to three days in a lighted dew chamber at 20° C.) to permit spores to germinate and infect the leaf. The plants were then transferred to a greenhouse set at 20° C. for disease to develop. When disease symptoms were fully expressed on the 1st leaves of untreated plants, infection levels were assessed on a scale of 0 to 100 percent disease severity. Percent disease control was calculated using the ratio of disease severity on treated plants relative to untreated plants. Cucumber seedlings (variety Bush Pickle) were propagated in soil-less Metro mix, with each pot having one plant, and used in the test when 12 to 14 days old. Test plants were inoculated with an aqueous spore suspension of Colletotrichum lagenarium 24 hr after fungicide treatments. After inoculation the plants were kept in a dew room at 22° C. with 100% relative humidity for 48 hr to permit spores to germinate and infect the leaf. The plants were then transferred to a growth room set at 22° C. for disease to develop. Fungicide formulation, application and disease assessment on the sprayed leaves followed the procedures as described in the Example A.

A further experiment relates to Venturia inaequalis. In words: Apple Scab (VENTIN) disease control. The settings on record: Venturia inaequalis, topical, 24 h, 1 Day Protectant, read-out: Disease Control VENTIN 1 DP. On the procedure:
Technical grades of materials were dissolved in acetone, which were then mixed with nine volumes of water containing 110 ppm Triton X-100. The fungicide solutions were applied onto wheat seedlings using an automated booth sprayer to run-off. All sprayed plants were allowed to air dry prior to further handling. All fungicides were evaluated using the aforementioned method for their activity vs. all target diseases. Wheat leaf blotch and brown rust activity were also evaluated using track spray applications, in which case the fungicides were formulated as EC formulations, containing 0.1% Trycol 5941 in the spray solutions. Wheat plants (variety Yuma) were grown from seed in a greenhouse in 50% mineral soil/50% soil-less Metro mix until the first leaf was fully emerged, with 7-10 seedlings per pot. These plants were inoculated with an aqueous spore suspension of Septoria tritici either prior to or after fungicide treatments. After inoculation the plants were kept in 100% relative humidity (one day in a dark dew chamber followed by two to three days in a lighted dew chamber at 20° C.) to permit spores to germinate and infect the leaf. The plants were then transferred to a greenhouse set at 20° C. for disease to develop. When disease symptoms were fully expressed on the 1st leaves of untreated plants, infection levels were assessed on a scale of 0 to 100 percent disease severity. Percent disease control was calculated using the ratio of disease severity on treated plants relative to untreated plants. Apple seedlings (variety McIntosh) were grown in soil-less Metro mix, with one plant per pot. Seedlings with two expanding young leaves at the top (older leaves at bottom of the plants were trimmed) were used in the test. Plants were inoculated with a spore suspension of Venturia inaequalis 24 hr after fungicide treatment and kept in a 22° C. dew chamber with 100% RH for 48 hr, and then moved to a greenhouse set at 20° C. for disease to develop. Fungicide formulation, application and disease assessment on the sprayed leaves followed the procedures as described in the Example A.

Another experiment has as its system Uncinula necator. Description: Grape Powdery Mildew (UNCINE) disease control. The settings on record: Erysiphe necator, topical, 24 h, 1 Day Protectant, read-out: Disease Control UNCINE 1 DP. On the procedure: Technical grades of materials were dissolved in acetone, which were then mixed with nine volumes of water containing 110 ppm Triton X-100. The fungicide solutions were applied onto wheat seedlings using an automated booth sprayer to run-off. All sprayed plants were allowed to air dry prior to further handling. All fungicides were evaluated using the aforementioned method for their activity vs. all target diseases. Wheat leaf blotch and brown rust activity were also evaluated using track spray applications, in which case the fungicides were formulated as EC formulations, containing 0.1% Trycol 5941 in the spray solutions. Wheat plants (variety Yuma) were grown from seed in a greenhouse in 50% mineral soil/50% soil-less Metro mix until the first leaf was fully emerged, with 7-10 seedlings per pot. These plants were inoculated with an aqueous spore suspension of Septoria tritici either prior to or after fungicide treatments. After inoculation the plants were kept in 100% relative humidity (one day in a dark dew chamber followed by two to three days in a lighted dew chamber at 20° C.) to permit spores to germinate and infect the leaf. The plants were then transferred to a greenhouse set at 20° C. for disease to develop. When disease symptoms were fully expressed on the 1st leaves of untreated plants, infection levels were assessed on a scale of 0 to 100 percent disease severity. Percent disease control was calculated using the ratio of disease severity on treated plants relative to untreated plants. Grape seedlings (variety Carignane) were grown in soil-less Metro mix, with one plant per pot, and used in the test when approximately one month old. Plants were inoculated 24 hr after fungicide treatment by shaking spores from infected leaves over test plants. Plants were maintained in a greenhouse set at 20° C. until disease was fully developed. Fungicide formulation, application and disease assessment on the sprayed leaves followed the procedures as described in the Example A.

The next experiment has as its system Rhyncosporium secalis. Description: Barley Scald (RHYNSE) disease control. Conditions: Hordeum vulgare, 24 h, 1 Day Protectant, read-out: Disease Control RHYNSE 1 DP. As to the method:
Technical grades of materials were dissolved in acetone, which were then mixed with nine volumes of water containing 110 ppm Triton X-100. The fungicide solutions were applied onto wheat seedlings using an automated booth sprayer to run-off. All sprayed plants were allowed to air dry prior to further handling. All fungicides were evaluated using the aforementioned method for their activity vs. all target diseases. Wheat leaf blotch and brown rust activity were also evaluated using track spray applications, in which case the fungicides were formulated as EC formulations, containing 0.1% Trycol 5941 in the spray solutions. Wheat plants (variety Yuma) were grown from seed in a greenhouse in 50% mineral soil/50% soil-less Metro mix until the first leaf was fully emerged, with 7-10 seedlings per pot. These plants were inoculated with an aqueous spore suspension of Septoria tritici either prior to or after fungicide treatments. After inoculation the plants were kept in 100% relative humidity (one day in a dark dew chamber followed by two to three days in a lighted dew chamber at 20° C.) to permit spores to germinate and infect the leaf. The plants were then transferred to a greenhouse set at 20° C. for disease to develop. When disease symptoms were fully expressed on the 1st leaves of untreated plants, infection levels were assessed on a scale of 0 to 100 percent disease severity. Percent disease control was calculated using the ratio of disease severity on treated plants relative to untreated plants. Barley seedlings (variety Harrington) were propagated in soil-less Metro mix, with each pot having 8 to 12 plants, and used in the test when first leaf was fully emerged. Test plants were inoculated by an aqueous spore suspension of Rhyncosporium secalis 24 hr after fungicide treatments. After inoculation the plants were kept in a dew room at 20° C. with 100% relative humidity for 48 hr. The plants were then transferred to a greenhouse set at 20° C. for disease to develop. Fungicide formulation, application and disease assessment on the sprayed leaves followed the procedures as described in the Example A.

Turning to `COc1ccnc(C(=O)N[C@H]2CCC[C@H](Cc3ccc(F)cc3F)[C@@H](OC(=O)c3ccco3)[C@H](C)OC2=O)c1OCOC(=O)C(C)C` [Compound F157], the pest or weed control at 100 ppm fell in the range of 80 to 100% in experiment [1], 0 to 80% in the experiment on Venturia inaequalis, 80 to 100% with Uncinula necator and 80 to 100% with Rhyncosporium secalis.

In the case of `COc1ccnc(C(=O)N[C@H]2CCC[C@H](Cc3ccc(F)cc3)[C@@H](OCC3CC3)[C@H](C)OC2=O)c1OC(C)=O` [Compound F67], the pest or weed control at 100 ppm in experiment [1] lay within 80 to 100%; with Venturia inaequalis, 0 to 80%; with Uncinula necator, 0 to 80%; in the experiment on Rhyncosporium secalis, 80 to 100%.

Take `CCOCC(=O)OCOc1c(OC)ccnc1C(=O)N[C@H]1CCC[C@H](Cc2ccc(F)cc2)[C@@H](OCC2CC2)[C@H](C)OC1=O` [Compound F164]: the pest or weed control at 100 ppm (in experiment [1]; in the experiment with Venturia inaequalis; with Uncinula necator; with Rhyncosporium secalis) was 80 to 100% each time.

Consider `CC[C@H]1CCC[C@H](NC(=O)c2nccc(OC)c2OC(C)=O)C(=O)O[C@@H](C)[C@@H]1Oc1ccccc1` [Compound F81], for which the pest or weed control at 100 ppm lay within 80 to 100% in experiment [1], 0 to 80% in the experiment with Venturia inaequalis, 80 to 100% with Uncinula necator and 80 to 100% with Rhyncosporium secalis.

Take `COc1ccnc(C(=O)N[C@H]2CCC[C@H](CC(F)F)[C@@H](Oc3ccccc3)[C@H](C)OC2=O)c1OCOC(C)=O` [Compound F138]: the pest or weed control at 100 ppm in experiment [1] lay within 80 to 100%; in the experiment on Venturia inaequalis, 0 to 80%; in the experiment on Uncinula necator, 0 to 80%; in the experiment with Rhyncosporium secalis it was 0 to 80%.

As for `COc1ccnc(C(=O)N[C@H]2CCC[C@H](CCF)[C@@H](OCC(C)C)[C@H](C)OC2=O)c1OCOC(C)=O` [Compound F128, ((2-(((3S,7R,8R,9S)-7-(2-fluoroethyl)-8-isobutoxy-9-methyl-2-oxooxonan-3-yl)carbamoyl)-4-methoxypyridin-3-yl)oxy)methyl acetate], the pest or weed control at 100 ppm lay in the range of 80 to 100% in experiment [1], 0 to 80% in the experiment on Venturia inaequalis, 80 to 100% in the experiment with Uncinula necator and 0 to 80% with Rhyncosporium secalis.

For the compound `COc1ccnc(C(=O)N[C@H]2CCC[C@H](Cc3ccc(F)cc3)[C@@H](OCC3CC3)[C@H](C)OC2=O)c1OCOC(C)=O` [Compound F96], the pest or weed control at 100 ppm in experiment [1] lay within 80 to 100%; in the experiment on Venturia inaequalis, 0 to 80%; with Uncinula necator, 80 to 100%; with Rhyncosporium secalis, 80 to 100%.

Consider `COc1ccnc(C(=O)N[C@H]2CCC[C@H](Cc3ccc(F)cc3F)[C@@H](OC(=O)c3ccco3)[C@H](C)OC2=O)c1OCOC(C)=O` [Compound F144], for which the pest or weed control at 100 ppm in experiment [1] is 80 to 100%; with Venturia inaequalis, 80 to 100%; in the experiment with Uncinula necator it was 0 to 80%; with Rhyncosporium secalis, 80 to 100%.

With `CCCO[C@@H]1[C@@H](Cc2ccc(F)cc2)CCC[C@H](NC(=O)c2nccc(OC)c2OCOC(=O)COCC)C(=O)O[C@H]1C` [Compound F167], the pest or weed control at 100 ppm (in experiment [1]; with Venturia inaequalis; in the experiment with Uncinula necator; in the experiment with Rhyncosporium secalis) was 80 to 100% each time.

As to `CCOCC(=O)OCOc1c(OC)ccnc1C(=O)N[C@H]1CCC[C@H](Cc2ccc(F)cc2F)[C@@H](OC(=O)c2ccco2)[C@H](C)OC1=O` [Compound F193], the pest or weed control at 100 ppm in experiment [1] was in the range of 80 to 100%; in the experiment with Venturia inaequalis it was 80 to 100%; in the experiment with Uncinula necator, 0 to 80%; in the experiment with Rhyncosporium secalis, 80 to 100%.

`CCOCC(=O)OCOc1c(OC)ccnc1C(=O)N[C@H]1CCC[C@H](CCOC)[C@@H](Oc2ccccc2)[C@H](C)OC1=O` [Compound F183]: the pest or weed control at 100 ppm in experiment [1] fell in the range of 80 to 100%; in the experiment with Venturia inaequalis it was 0 to 80%; in the experiment with Uncinula necator, 80 to 100%; in the experiment with Rhyncosporium secalis, 80 to 100%.

As to `CCCO[C@@H]1[C@@H](CCC(C)C)CCC[C@H](NC(=O)c2nccc(OC)c2OCOC(C)=O)C(=O)O[C@H]1C` [Compound F92], the pest or weed control at 100 ppm (in experiment [1]; with Venturia inaequalis; in the experiment on Uncinula necator; in the experiment with Rhyncosporium secalis) was 80 to 100% throughout.

For the compound `COc1ccnc(C(=O)N[C@H]2CCC[C@H](Cc3ccccc3)[C@@H](OCC(C)C)[C@H](C)OC2=O)c1OCOC(C)=O` [Compound F106], the pest or weed control at 100 ppm in experiment [1] is 80 to 100%; in the experiment with Venturia inaequalis it was 0 to 80%; in the experiment on Uncinula necator, 80 to 100%; in the experiment on Rhyncosporium secalis, 80 to 100%.
